Reference: article PMC9965520, “An Efficient Peptidomics Screening for Exogenous Substrates and Inhibitory Peptides of the Dipeptidase ACE from Milk Hydrolysate” (Pharmaceutics, 2023)
Where two headings read alike, the source gives them in different places. No end group written: not given here.

What was measured:
ACE [1] = molecular target: T1, ACE (Oryctolagus cuniculus, UniProt P12822); test: ACE hydrolysis of synthetic substrate candidates monitored by LC-MS at different incubation times; type: in vitro ADME, rabbit; design: ACE (EC 3.4.15.1, 1 unit) from rabbit lungs; purchased Sigma Chemical Co. (St. Louis, MO, USA); host or cells: rabbit lungs (tissue-derived enzyme); conditions: 37 °C; for Substrate content (%) 30min / Substrate content (%) 60min / Substrate content (%) 90min / Substrate content (%) 120min / Substrate content (%) 150min / Substrate content (%) 180min: synthetic peptide with ACE, RS% = As/(As+Ap)x100 from SIC peak areas, LC-MS
T1 sequence (P12822 34-1310): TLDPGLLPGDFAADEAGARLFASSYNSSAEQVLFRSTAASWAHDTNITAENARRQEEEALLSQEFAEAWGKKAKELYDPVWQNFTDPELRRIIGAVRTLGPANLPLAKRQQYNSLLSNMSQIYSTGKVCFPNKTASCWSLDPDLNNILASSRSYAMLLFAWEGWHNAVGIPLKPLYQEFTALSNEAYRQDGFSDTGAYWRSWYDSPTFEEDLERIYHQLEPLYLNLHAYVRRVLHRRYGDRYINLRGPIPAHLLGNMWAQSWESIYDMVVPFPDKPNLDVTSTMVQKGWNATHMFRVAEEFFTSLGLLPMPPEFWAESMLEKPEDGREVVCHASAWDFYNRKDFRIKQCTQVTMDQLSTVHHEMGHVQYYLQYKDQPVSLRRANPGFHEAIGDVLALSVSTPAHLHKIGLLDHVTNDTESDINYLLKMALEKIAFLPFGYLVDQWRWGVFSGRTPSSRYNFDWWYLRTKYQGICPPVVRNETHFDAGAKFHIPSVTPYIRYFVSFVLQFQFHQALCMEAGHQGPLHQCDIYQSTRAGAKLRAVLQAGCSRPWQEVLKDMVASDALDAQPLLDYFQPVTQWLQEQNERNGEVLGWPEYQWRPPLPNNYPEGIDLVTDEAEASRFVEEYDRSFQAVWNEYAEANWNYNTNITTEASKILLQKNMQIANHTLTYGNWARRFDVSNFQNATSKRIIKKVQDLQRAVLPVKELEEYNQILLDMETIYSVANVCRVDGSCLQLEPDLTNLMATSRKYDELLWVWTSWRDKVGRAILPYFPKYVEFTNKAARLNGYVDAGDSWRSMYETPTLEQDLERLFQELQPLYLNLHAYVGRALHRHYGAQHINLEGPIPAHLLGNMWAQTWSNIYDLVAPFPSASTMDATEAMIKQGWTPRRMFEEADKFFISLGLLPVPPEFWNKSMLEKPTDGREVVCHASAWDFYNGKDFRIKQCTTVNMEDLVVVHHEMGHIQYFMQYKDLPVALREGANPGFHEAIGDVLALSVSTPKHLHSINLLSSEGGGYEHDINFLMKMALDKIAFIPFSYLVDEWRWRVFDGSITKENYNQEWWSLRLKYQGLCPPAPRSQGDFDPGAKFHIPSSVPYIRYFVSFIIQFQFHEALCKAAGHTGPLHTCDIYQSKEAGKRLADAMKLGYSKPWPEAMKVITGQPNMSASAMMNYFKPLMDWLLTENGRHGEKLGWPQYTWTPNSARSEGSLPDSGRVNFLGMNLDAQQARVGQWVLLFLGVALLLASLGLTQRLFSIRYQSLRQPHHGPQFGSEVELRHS
Description: To confirm the reactivity of the identified peptide candidates towards ACE, the synthetic peptides were individually mixed with ACE and incubated at 37 °C for 3 h. The remaining peptide substrate and the resulting product were analyzed using LC-MS/MS. Meanwhile, the degradation rate of each peptide was monitored every 30 min using LC-MS. The percentage of the remaining substrate (RS%) at each time point was calculated as As/(As + Ap) 100%. In which, As is the selective ion chromatogram (SIC) peak area of remaining substrate and Ap is the peak area of the resulting product. The RS% was further compared with the D/H ratio obtained in Section 2.4.

ACE [2] = molecular target: T1, ACE; test: ACE inhibitory (ACEI) assay with HHL as substrate, with and without ACE pre-incubation; type: biochemical, rabbit; design: ACE (EC 3.4.15.1, 1 unit) from rabbit lungs; purchased Sigma Chemical Co. (St. Louis, MO, USA); host or cells: rabbit lungs (tissue-derived enzyme); conditions: 37 °C, HA by HPLC-UV 228 nm, mean ± SD, triplicate
Description: The ACE inhibitory assay was performed based on the previous report with slight modification. […] The mixture was first incubated at 37 °C statically for 30 min, and then shaken at 200 rpm for another 30 min. The reaction was terminated using 60 µL of HCl (1 M). The hydrolyzed product of HHL, HA, was analyzed by HPLC (Hitachi Chromaster, Tokyo, Japan) equipped with a NUCLEODUR® C18 HTec column (4.6 mm × 250 mm; particle size 5 µm, Macherey-Nagel, Düren, Germany) and quantified by its chromatographic peak area. The mixture was separated using an isocratic elution with the solution containing 24% ACN and 0.1% TFA at a constant flow rate of 1 mL/min. The substrate and product were monitored using a UV-Vis detector at a wavelength of 228 nm. The ACEI activity (%) was calculated as shown below: ACEI activity (%) = [1 – (Ainhibitor/Ablank)] × 100% where Ainhibitor and Ablank were the resulting HA peak areas in the mixtures with and without inhibitors, respectively. Along with the peptide substrate’s ACEI activity, its IC50 value was also determined using a nonlinear regression between ACE inhibition (%), and the logarithm of inhibitor concentrations could be carried out with GraphPad Prism 5.0 (GraphPad Software, Inc., La Jolla, CA, USA).

ACE [3] = molecular target: T1, ACE; conditions: Ang-I (1 μg) + peptide (1 μg), ACE 0.05 mU/µL, 200 mM borate buffer, 300 mM NaCl, pH 8.3, 37 °C, 3 h; RA% = AI/(AI+AII)x100, LC-MS SIC
Description: To a mixture of Ang-I (1 μg) and peptide substrate (1 μg) in 50 µL of borate buffe (200 mM borate buffer, 300 mM NaCl, pH 8.3), 20 µL of ACE (0.05 mU/µL) was added. The mixture was incubated at 37 °C and monitored using LC-MS/MS at 1, 2, 3, 4, 6, and 10 h. The LC separation was performed on Syncronis C18 column (150 mm × 2.1 mm, 5 µm, Thermo Scientific) and eluted with the mobile phase A (5% ACN and 0.1% FA) and B (95% ACN and 0.1% FA) at a flow rate of 350 µL/min. The elution gradient was programmed as (i) 0–5 min, isocratic elution with 5% B; (ii) 5–20 min, linear gradient from 5% to 55% B; (iii) 20–22 min, linear gradient from 55% to 80% solution B; and finally (iv) 22–30 min, isocratic elution maintained at 80% solution B. The degradation of Ang-I and the formation of Ang-II were analyzed using selective ion chromatogram (SIC) on a triple quadrupole mass analyzer (TSQ, Thermo Scientific). The percentage of the remaining angiotensin I (RA%) at each time point was calculated as AI/(AI + AII) × 100%, where AI is the SIC peak area of remaining Ang-I and AII is the peak area of the resulting Ang-II.

[4] = no ACE pre-incubation, 2.5 mM HHL, ACE 0.05 mU/µL, borate buffer, 30 min static + 30 min 200 rpm, read-out: IC50 (μM) (Regular Assay)
[5] = peptide pre-incubated with ACE, then HHL assay, read-out: IC50 (μM) (Pre-Incubation)

Row | Substrate content (%) 30min (ACE [1]) | Substrate content (%) 60min (ACE [1]) | Substrate content (%) 90min (ACE [1]) | Substrate content (%) 120min (ACE [1]) | Substrate content (%) 150min (ACE [1]) | Substrate content (%) 180min (ACE [1]) | IC50 (ACE [2]; [4]) | IC50 (ACE [2]; [5]) | Ang-I remained (RA%) on co-incubation with peptide (ACE [3]) | Hydrolysis of synthetic peptide by ACE (result in words) (ACE [1]; synthetic peptide incubated with ACE, 3 h, LC-MS/MS) | Substance
1 | 7.80% | 7.20% | 6.25% | 5.68% | 2.64% | 1.05% | 38.9 ± 2.05 µM | 27.3 ± 2.16 µM | – | – | LVYPFPGPIHNSL [LL-13]
2 | 58.04% | 37.06% | 22.61% | 11.41% | 7.12% | 6.82% | 12.3 ± 0.37 µM | 71.9 ± 2.19 µM | – | – | LHLPLPLL [LL-8]
3 | 2.40% | 1.59% | 0.00% | 0.00% | 0.00% | 0.00% | 6.8 ± 0.23 µM | 25.3 ± 0.96 µM | 73.9% | – | AYFYPELFR [AR-9]
4 | 76.08% | 49.76% | 34.59% | 32.31% | 21.80% | 14.21% | 104 ± 2.47 µM | 44.6 ± 3.06 µM | – | partially hydrolyzed | FFVAPFPEVF [FF-10]
5 | 2.47% | 0.00% | 0.00% | 0.00% | 0.00% | 0.00% | 10.6 ± 0.17 µM | 17.8 ± 0.65 µM | – | – | HLPLPLLQSW [HW-10]
6 | 8.35% | 7.02% | 6.54% | 6.41% | 6.27% | 5.83% | 250 ± 7.9 µM | 189 ± 9.6 µM | – | – | YVPLGTQ [YQ-7]
